± gives the uncertainty stated by the source.
Test: xn = mol fraction of the nth substance listed

Work on `c1ccc2c(c1)CCCC2` + CCCCCCCCC yielded a viscosity (293.15 K, 101 kPa, x2 = 0.1063) of 1.814 ± 0.013 mPa·s, a viscosity (293.15 K, 101 kPa, x2 = 0.2018) of 1.585 ± 0.012 mPa·s and a viscosity (293.15 K, 101 kPa, x2 = 0.3066) of 1.352 ± 0.011 mPa·s. The viscosity (293.15 K, 101 kPa, x2 = 0.4057) was 1.198 ± 0.01 mPa·s, the viscosity (293.15 K, 101 kPa, x2 = 0.5014) was 1.082 ± 0.009 mPa·s and the viscosity (293.15 K, 101 kPa, x2 = 0.6005) was 0.976 ± 0.009 mPa·s. The viscosity (293.15 K, 101 kPa, x2 = 0.704) was 0.89 ± 0.008 mPa·s, the viscosity (293.15 K, 101 kPa, x2 = 0.7942) was 0.826 ± 0.008 mPa·s and the viscosity (293.15 K, 101 kPa, x2 = 0.8898) was 0.784 ± 0.008 mPa·s. For the same compound, the viscosity (298.15 K, 101 kPa, x2 = 0.1063) was 1.653 ± 0.012 mPa·s, the viscosity (298.15 K, 101 kPa, x2 = 0.2018) was 1.45 ± 0.011 mPa·s and the viscosity (298.15 K, 101 kPa, x2 = 0.3066) was 1.254 ± 0.01 mPa·s. The viscosity (298.15 K, 101 kPa, x2 = 0.4057) was 1.111 ± 0.009 mPa·s, the viscosity (298.15 K, 101 kPa, x2 = 0.5014) was 1.006 ± 0.009 mPa·s and the viscosity (298.15 K, 101 kPa, x2 = 0.6005) was 0.908 ± 0.008 mPa·s. It also gave a viscosity (298.15 K, 101 kPa, x2 = 0.704) of 0.833 ± 0.008 mPa·s, a viscosity (298.15 K, 101 kPa, x2 = 0.7942) of 0.775 ± 0.008 mPa·s and a viscosity (298.15 K, 101 kPa, x2 = 0.8898) of 0.735 ± 0.007 mPa·s. The viscosity (303.15 K, 101 kPa, x2 = 0.1063) was 1.518 ± 0.011 mPa·s, the viscosity (303.15 K, 101 kPa, x2 = 0.2018) was 1.334 ± 0.01 mPa·s and the viscosity (303.15 K, 101 kPa, x2 = 0.3066) was 1.151 ± 0.009 mPa·s. The viscosity (303.15 K, 101 kPa, x2 = 0.4057) was 1.034 ± 0.009 mPa·s, the viscosity (303.15 K, 101 kPa, x2 = 0.5014) was 0.937 ± 0.008 mPa·s and the viscosity (303.15 K, 101 kPa, x2 = 0.6005) was 0.848 ± 0.008 mPa·s. For the same compound, the viscosity (303.15 K, 101 kPa, x2 = 0.704) was 0.777 ± 0.008 mPa·s, the viscosity (303.15 K, 101 kPa, x2 = 0.7942) was 0.728 ± 0.007 mPa·s and the viscosity (303.15 K, 101 kPa, x2 = 0.8898) was 0.69 ± 0.007 mPa·s. For the same compound, the viscosity (313.15 K, 101 kPa, x2 = 0.1063) was 1.308 ± 0.01 mPa·s, the viscosity (313.15 K, 101 kPa, x2 = 0.2018) was 1.148 ± 0.009 mPa·s and the viscosity (313.15 K, 101 kPa, x2 = 0.3066) was 0.997 ± 0.009 mPa·s. It also gave a viscosity (313.15 K, 101 kPa, x2 = 0.4057) of 0.905 ± 0.008 mPa·s, a viscosity (313.15 K, 101 kPa, x2 = 0.5014) of 0.821 ± 0.008 mPa·s and a viscosity (313.15 K, 101 kPa, x2 = 0.6005) of 0.749 ± 0.007 mPa·s. It also gave a viscosity (313.15 K, 101 kPa, x2 = 0.704) of 0.69 ± 0.007 mPa·s, a viscosity (313.15 K, 101 kPa, x2 = 0.7942) of 0.649 ± 0.007 mPa·s and a viscosity (313.15 K, 101 kPa, x2 = 0.8898) of 0.615 ± 0.007 mPa·s.
Compound `CC(C)c1cc(C(C)C)cc(C(C)C)c1` + CCCCCCCCCCCCCCCC has a viscosity (293.15 K, 102 kPa, x1 = 0.1209) of 3.41 ± 0.03 mPa·s, a viscosity (293.15 K, 102 kPa, x1 = 0.1996) of 3.37 ± 0.03 mPa·s and a viscosity (293.15 K, 102 kPa, x1 = 0.3001) of 3.35 ± 0.04 mPa·s. For the same compound, the viscosity (293.15 K, 102 kPa, x1 = 0.3994) was 3.34 ± 0.04 mPa·s, the viscosity (293.15 K, 102 kPa, x1 = 0.5003) was 3.37 ± 0.04 mPa·s and the viscosity (293.15 K, 102 kPa, x1 = 0.6004) was 3.43 ± 0.05 mPa·s. It also gave a viscosity (293.15 K, 102 kPa, x1 = 0.6998) of 3.53 ± 0.05 mPa·s, a viscosity (293.15 K, 102 kPa, x1 = 0.7999) of 3.67 ± 0.06 mPa·s and a viscosity (293.15 K, 102 kPa, x1 = 0.8993) of 3.86 ± 0.06 mPa·s. The viscosity (303.15 K, 102 kPa, x1 = 0.1209) was 2.7 ± 0.03 mPa·s, the viscosity (303.15 K, 102 kPa, x1 = 0.1996) was 2.67 ± 0.03 mPa·s and the viscosity (303.15 K, 102 kPa, x1 = 0.3001) was 2.64 ± 0.03 mPa·s. The viscosity (303.15 K, 102 kPa, x1 = 0.3994) was 2.63 ± 0.03 mPa·s, the viscosity (303.15 K, 102 kPa, x1 = 0.5003) was 2.64 ± 0.04 mPa·s and the viscosity (303.15 K, 102 kPa, x1 = 0.6004) was 2.66 ± 0.04 mPa·s. The viscosity (303.15 K, 102 kPa, x1 = 0.6998) was 2.71 ± 0.04 mPa·s, the viscosity (303.15 K, 102 kPa, x1 = 0.7999) was 2.79 ± 0.05 mPa·s and the viscosity (303.15 K, 102 kPa, x1 = 0.8993) was 2.9 ± 0.05 mPa·s. The viscosity (313.15 K, 102 kPa, x1 = 0.1209) was 2.19 ± 0.03 mPa·s, the viscosity (313.15 K, 102 kPa, x1 = 0.1996) was 2.16 ± 0.03 mPa·s and the viscosity (313.15 K, 102 kPa, x1 = 0.3001) was 2.13 ± 0.03 mPa·s. For the same compound, the viscosity (313.15 K, 102 kPa, x1 = 0.3994) was 2.12 ± 0.03 mPa·s, the viscosity (313.15 K, 102 kPa, x1 = 0.5003) was 2.12 ± 0.03 mPa·s and the viscosity (313.15 K, 102 kPa, x1 = 0.6004) was 2.13 ± 0.03 mPa·s. For the same compound, the viscosity (313.15 K, 102 kPa, x1 = 0.6998) was 2.15 ± 0.04 mPa·s, the viscosity (313.15 K, 102 kPa, x1 = 0.7999) was 2.19 ± 0.04 mPa·s and the viscosity (313.15 K, 102 kPa, x1 = 0.8993) was 2.26 ± 0.04 mPa·s. It also gave a viscosity (323.15 K, 102 kPa, x1 = 0.1209) of 1.81 ± 0.02 mPa·s, a viscosity (323.15 K, 102 kPa, x1 = 0.1996) of 1.79 ± 0.03 mPa·s and a viscosity (323.15 K, 102 kPa, x1 = 0.3001) of 1.76 ± 0.03 mPa·s. The viscosity (323.15 K, 102 kPa, x1 = 0.3994) was 1.75 ± 0.03 mPa·s, the viscosity (323.15 K, 102 kPa, x1 = 0.5003) was 1.74 ± 0.03 mPa·s and the viscosity (323.15 K, 102 kPa, x1 = 0.6004) was 1.74 ± 0.03 mPa·s. The viscosity (323.15 K, 102 kPa, x1 = 0.6998) was 1.75 ± 0.03 mPa·s, the viscosity (323.15 K, 102 kPa, x1 = 0.7999) was 1.77 ± 0.03 mPa·s and the viscosity (323.15 K, 102 kPa, x1 = 0.8993) was 1.81 ± 0.04 mPa·s.
For `c1ccc2c(c1)CCCC2` + CCCCCCCC, the viscosity (293.15 K, 101 kPa, x2 = 0.0997) was 1.831 ± 0.013 mPa·s, the viscosity (293.15 K, 101 kPa, x2 = 0.2011) was 1.527 ± 0.012 mPa·s and the viscosity (293.15 K, 101 kPa, x2 = 0.3013) was 1.303 ± 0.01 mPa·s. It also gave a viscosity (293.15 K, 101 kPa, x2 = 0.3997) of 1.143 ± 0.009 mPa·s, a viscosity (293.15 K, 101 kPa, x2 = 0.5003) of 0.976 ± 0.009 mPa·s and a viscosity (293.15 K, 101 kPa, x2 = 0.5995) of 0.85 ± 0.008 mPa·s. The viscosity (293.15 K, 101 kPa, x2 = 0.7001) was 0.747 ± 0.007 mPa·s, the viscosity (293.15 K, 101 kPa, x2 = 0.8014) was 0.673 ± 0.007 mPa·s and the viscosity (293.15 K, 101 kPa, x2 = 0.8955) was 0.612 ± 0.007 mPa·s. The viscosity (298.15 K, 101 kPa, x2 = 0.0997) was 1.675 ± 0.012 mPa·s, the viscosity (298.15 K, 101 kPa, x2 = 0.2011) was 1.405 ± 0.011 mPa·s and the viscosity (298.15 K, 101 kPa, x2 = 0.3013) was 1.207 ± 0.01 mPa·s. For the same compound, the viscosity (298.15 K, 101 kPa, x2 = 0.3997) was 1.063 ± 0.009 mPa·s, the viscosity (298.15 K, 101 kPa, x2 = 0.5003) was 0.918 ± 0.008 mPa·s and the viscosity (298.15 K, 101 kPa, x2 = 0.5995) was 0.811 ± 0.008 mPa·s. The viscosity (298.15 K, 101 kPa, x2 = 0.7001) was 0.702 ± 0.007 mPa·s, the viscosity (298.15 K, 101 kPa, x2 = 0.8014) was 0.635 ± 0.007 mPa·s and the viscosity (298.15 K, 101 kPa, x2 = 0.8955) was 0.58 ± 0.007 mPa·s. It also gave a viscosity (303.15 K, 101 kPa, x2 = 0.0997) of 1.533 ± 0.012 mPa·s, a viscosity (303.15 K, 101 kPa, x2 = 0.2011) of 1.294 ± 0.01 mPa·s and a viscosity (303.15 K, 101 kPa, x2 = 0.3013) of 1.118 ± 0.009 mPa·s. For the same compound, the viscosity (303.15 K, 101 kPa, x2 = 0.3997) was 0.989 ± 0.009 mPa·s, the viscosity (303.15 K, 101 kPa, x2 = 0.5003) was 0.857 ± 0.008 mPa·s and the viscosity (303.15 K, 101 kPa, x2 = 0.5995) was 0.762 ± 0.008 mPa·s. The viscosity (303.15 K, 101 kPa, x2 = 0.7001) was 0.662 ± 0.007 mPa·s, the viscosity (303.15 K, 101 kPa, x2 = 0.8014) was 0.599 ± 0.007 mPa·s and the viscosity (303.15 K, 101 kPa, x2 = 0.8955) was 0.55 ± 0.007 mPa·s. The viscosity (313.15 K, 101 kPa, x2 = 0.0997) was 1.308 ± 0.01 mPa·s, the viscosity (313.15 K, 101 kPa, x2 = 0.2011) was 1.117 ± 0.009 mPa·s and the viscosity (313.15 K, 101 kPa, x2 = 0.3013) was 0.971 ± 0.009 mPa·s. For the same compound, the viscosity (313.15 K, 101 kPa, x2 = 0.3997) was 0.866 ± 0.008 mPa·s, the viscosity (313.15 K, 101 kPa, x2 = 0.5003) was 0.757 ± 0.007 mPa·s and the viscosity (313.15 K, 101 kPa, x2 = 0.5995) was 0.675 ± 0.007 mPa·s. The viscosity (313.15 K, 101 kPa, x2 = 0.7001) was 0.592 ± 0.007 mPa·s, the viscosity (313.15 K, 101 kPa, x2 = 0.8014) was 0.539 ± 0.006 mPa·s and the viscosity (313.15 K, 101 kPa, x2 = 0.8955) was 0.496 ± 0.006 mPa·s.

Reference: the CheMixHub viscosity set
